Data taken from US7964531B2, “3-phenoxy-4-pyridazinol derivatives and herbicidal composition containing the same” (Mitsui Chemicals Agro, Inc., priority 2001, dated 2011).

Row | melting point | Structure (SMILES)
1 | 181.5 to 182 °C | CC(C)c1ccccc1Oc1nnccc1O [Compound No. 6, 3-(2-Isopropylphenoxy)-4-pyridazinol]
2 | 245 to 247 °C | Oc1cc(Cl)nnc1Oc1cccc2c1C1CC1C2 (centres unmarked) [Compound No. 515, 3-(1,1a,6,6a-Tetrahydrocyclopropa[a]inden-2-yloxy)-6-chloro-4-pyridazinol]
3 | 115 to 123 °C | COC(=O)c1ccc(OC)c(Oc2nnc(Cl)cc2O)c1 [Compound No. 2574, Methyl 3-[(6-chloro-4-hydroxy-3-pyridazinyl)oxy]-4-methoxybenzoate]
4 | 211 to 212 °C | CC(C)c1ccc(C2CC2)c(Oc2nnc(Cl)cc2O)c1 [Compound No. 664, 6-Chloro-3-(2-cyclopropyl-5-isopropylphenoxy)-4-pyridazinol]
5 | 215 to 217 °C | Cc1cc(C)c(Oc2nnc(Cl)cc2O)c(C2CC2)c1 [Compound No. 1123, 6-Chloro-3-(2-cyclopropyl-4,6-dimethylphenoxy)-4-pyridazinol]
6 | 127 to 128 °C | COc1cccc(OC)c1C(=O)Oc1cc(Cl)nnc1Oc1c(C)cccc1C1CC1 [Compound No. 3162, 6-Chloro-3-(2-cyclopropyl-6-methylphenoxy)-4-pyridazinyl 2,6-dimethoxybenzoate]
7 | 174 to 179 °C | CCOc1cccc(C2CC2)c1Oc1nnc(Cl)cc1O [Compound No. 965, 6-Chloro-3-(2-cyclopropyl-6-ethoxyphenoxy)-4-pyridazinol]
8 | 221 to 224 °C | CC=Cc1ccc(Cl)cc1Oc1nnc(Cl)cc1O [Compound No. 680, 6-Chloro-3-[5-chloro-2-(1-propenyl)phenoxy]-4-pyridazinol]
9 | 175 to 180 °C | Oc1cc(Cl)nnc1Oc1c(C2CC2)ccc2ccoc12 [Compound No. 1102, 6-Chloro-3-[(6-cyclopropyl-1-benzofuran-7-yl)oxy]-4-pyridazinol]
10 | 249 to 250 °C | Cc1cc(F)ccc1Oc1nnc(Cl)cc1O [Compound No. 557, 6-Chloro-3-(4-fluoro-2-methylphenoxy)-4-pyridazinol]
11 | 218 to 233 °C | CC(C)c1cccc(Cl)c1Oc1nnc(Cl)cc1O [Compound No. 738, 6-Chloro-3-(2-chloro-6-isopropylphenoxy)-4-pyridazinol]
12 | 220 to 223 °C | CC1(C)Cc2cccc(Oc3nnc(Cl)cc3O)c2C1 [Compound No. 513, 6-Chloro-3-[(2,2-dimethyl-2,3-dihydro-1H-inden-4-yl)oxy]-4-pyridazinol]
13 | 261 to 263 °C | Cc1ccc(Oc2nnc(Cl)cc2O)cc1 [Compound No. 430, 6-Chloro-3-(4-methylphenoxy)-4-pyridazinol]
14 | 260 to 263.5 °C | COc1ccc(Oc2nnc(Cl)cc2O)cc1 [Compound No. 435, 6-Chloro-3-(4-methoxyphenoxy)-4-pyridazinol]
15 | 197 to 202 °C | Cc1nc2cccc(Oc3nnc(Cl)cc3O)c2o1 [Compound No. 549, 6-Chloro-3-[(2-methyl-1,3-benzoxazol-7-yl)oxy]-4-pyridazinol]
16 | 217 to 219 °C | Cc1ccc2c(c1Oc1nnc(Cl)cc1O)OCC2 [Compound No. 1096, 6-Chloro-3-[(6-methyl-2,3-dihydro-1-benzofuran-7-yl)oxy]-4-pyridazinol]
17 | 165 to 168 °C | Oc1cc(Cl)nnc1Oc1ccccc1CC1CC1 [Compound No. 311, 6-Chloro-3-[2-(cyclopropylmethyl)phenoxy]-4-pyridazinol]
18 | 213 to 214 °C | CSc1c(C)cc(C)cc1Oc1nnc(Cl)cc1O [Compound No. 1027, 6-Chloro-3-[3,5-dimethyl-2-(methylsulfanyl)phenoxy]-4-pyridazinol]
19 | 81 to 82.5 °C | Cc1ccccc1Oc1nnc(Cl)cc1OC(=O)c1ccc(Cl)cc1Cl [Compound No. 1603, 6-Chloro-3-(2-methylphenoxy)-4-pyridazinyl 2,4-dichlorobenzoate]
20 | 63 to 64.5 °C | CON(C)C(=O)Oc1cc(Cl)nnc1Oc1c(C)cccc1C1CC1
21 | 280 to 290 °C | Cc1cc(C)c(Br)c(Oc2nnc(Cl)cc2O)c1C [Compound No. 1124, 3-(2-Bromo-3,5,6-trimethylphenoxy)-6-chloro-4-pyridazinol]

Continued, compound first:

Row | Structure (SMILES) | melting point
22 | Cc1nc2c(Oc3nnc(Cl)cc3O)cccc2o1 [Compound No. 538, 6-Chloro-3-[(2-methyl-1,3-benzoxazol-4-yl)oxy]-4-pyridazinol] | 221 to 222 °C
23 | Cc1cccc(C2CC2)c1Oc1nnc(Cl)cc1OC(=O)C(C)C [Compound No. 1172, 6-Chloro-3-(2-cyclopropyl-6-methylphenoxy)-4-pyridazinyl 2-methylpropanoate] | 38 to 39 °C
24 | Cc1ccccc1Oc1nnc(-c2cccs2)cc1O [Compound No. 2478, 3-(2-Methylphenoxy)-6-(2-thienyl)-4-pyridazinol] | 86 to 87 °C
25 | Cc1ccccc1Oc1nnc(Cl)cc1OS(=O)(=O)c1ccc([N+](=O)[O-])cc1 [Compound No. 2287, 6-Chloro-3-(2-methylphenoxy)-4-pyridazinyl 4-nitrobenzenesulfonate] | 166 to 169 °C
26 | Cc1ccccc1Oc1nnc(Cl)cc1OS(=O)(=O)c1ccc(Cl)cc1 [Compound No. 2198, 6-Chloro-3-(2-methylphenoxy)-4-pyridazinyl 4-chlorobenzenesulfonate] | 93 to 94 °C
27 | Oc1cc(Cl)nnc1Oc1cccc(C(F)(F)F)c1 [Compound No. 418, 6-Chloro-3-[3-(trifluoromethyl)phenoxy]-4-pyridazinol] | 213 to 216 °C
28 | Cc1cccc(C2CC2)c1Oc1nnc(Cl)cc1OC(=O)c1ccc(C(C)(C)C)cc1 [Compound No. 1575, 6-Chloro-3-(2-cyclopropyl-6-methylphenoxy)-4-pyridazinyl 4-tert-butylbenzoate] | 139 to 142 °C
29 | Cc1cccc(C2CC2)c1Oc1nnc(Cl)cc1OC(=O)N1CCCC1 [Compound No. 1937, 6-Chloro-3-(2-cyclopropyl-6-methylphenoxy)-4-pyridazinyl 1-pyrrolidinecarboxylate] | 115 to 118 °C
30 | Oc1cc(Cl)nnc1Oc1cccc(OCc2ccccc2)c1 [Compound No. 2547, 3-[3-(Benzyloxy)phenoxy]-6-chloro-4-pyridazinol] | 184 to 185 °C
31 | Oc1cc(Cl)nnc1Oc1cccc2occc12 [Compound No. 531, 3-(1-benzofuran-4-yloxy)-6-chloro-4-pyridazinol] | 220 to 225 °C
32 | Oc1cc(Cl)nnc1Oc1ccc(C2CC2)cc1 [Compound No. 434, 6-Chloro-3-(4-cyclopropylphenoxy)-4-pyridazinol] | 221 to 227 °C
33 | Cc1cc(C)c(Oc2nnc(Cl)cc2O)c(C)c1 [Compound No. 1122, 6-Chloro-3-(2,4,6-trimethylphenoxy)-4-pyridazinol] | 235 to 239 °C
34 | Oc1cc(Cl)nnc1Oc1ccccc1C1(C2CC2)CC1 [Compound No. 151, 6-Chloro-3-{2-[1-(cyclopropyl)cyclopropyl]phenoxy}-4-pyridazinol] | 180 to 182 °C
35 | Cc1cc(C)c(Cl)c(Oc2nnc(Cl)cc2O)c1C [Compound No. 2599, 6-Chloro-3-(2-chloro-3,5,6-trimethylphenoxy)-4-pyridazinol] | 298 to 300 °C
36 | Oc1cc(Cl)nnc1Oc1cccc2c1CCO2 [Compound No. 528, 6-Chloro-3-(2,3-dihydro-1-benzofuran-4-yloxy)-4-pyridazinol] | 219 to 221 °C
37 | Oc1cc(Cl)nnc1Oc1cccc2c1CC1CC21 (centres unmarked) [Compound No. 516, 3-(1,1a,6,6a-Tetrahydrocyclopropa[a]inden-5-yloxy)-6-chloro-4-pyridazinol] | 211 to 213 °C
38 | Oc1cc(Cl)nnc1Oc1cccc2c1CC2 [Compound No. 505, 3-(Bicyclo[4.2.0]octa-1,3,5-trien-2-yloxy)-6-chloro-4-pyridazinol] | 145 to 155 °C
39 | C=C(C)C(=O)Oc1cc(Cl)nnc1Oc1c(C)cccc1C1CC1 [Compound No. 2677, 6-Chloro-3-(2-cyclopropyl-6-methylphenoxy)-4-pyridazinyl 2-methylacrylate] | 98 to 100 °C
40 | Cc1ccc(C(=O)Oc2cc(Cl)nnc2Oc2c(C)cccc2C2CC2)cc1 [Compound No. 1566, 6-Chloro-3-(2-cyclopropyl-6-methylphenoxy)-4-pyridazinyl 4-methylbenzoate] | 77.5 to 78 °C
41 | Cc1ccc2occc2c1Oc1nnc(Cl)cc1O [Compound No. 1109, 6-Chloro-3-[(5-methyl-1-benzofuran-4-yl)oxy]-4-pyridazinol] | 222 to 225 °C
42 | CCN(CC)C(=O)Oc1cc(Cl)nnc1Oc1c(C)cccc1C1CC1 | 119 to 121 °C
43 | CC(=O)c1ccc(Oc2nnc(Cl)cc2O)c(C)c1 [Compound No. 2570, 1-{4-[(6-Chloro-4-hydroxy-3-pyridazinyl)oxy]-3-methylphenyl}ethanone] | 182 to 184 °C
44 | Oc1cc(Cl)nnc1Oc1cccc2ccoc12 [Compound No. 541, 3-(1-Benzofuran-7-yloxy)-6-chloro-4-pyridazinol] | 201 to 202 °C
45 | CC(C)c1cccc(Br)c1Oc1nnc(Cl)cc1O [Compound No. 760, 3-(2-Bromo-6-isopropylphenoxy)-6-chloro-4-pyridazinol] | 232 to 253 °C (dec.)
46 | Oc1cc(Cl)nnc1Oc1cccc(C(F)(F)F)c1Cl [Compound No. 446, 6-Chloro-3-[2-chloro-3-(trifluoromethyl)phenoxy]-4-pyridazinol] | 170 to 200 °C
47 | CCOC(=O)Oc1cc(Cl)nnc1Oc1ccccc1C [Compound No. 1706, 6-Chloro-3-(2-methylphenoxy)-4-pyridazinyl ethyl carbonate] | 73 to 74 °C
48 | CCc1cccc(I)c1Oc1nnc(Cl)cc1O [Compound No. 781, 6-Chloro-3-(2-ethyl-6-iodophenoxy)-4-pyridazinol] | 242 to 244 °C
49 | Oc1cc(Cl)nnc1Oc1ccccc1C1CCC1 [Compound No. 284, 6-Chloro-3-(2-cyclobutylphenoxy)-4-pyridazinol] | 188 to 189 °C
50 | Oc1cc(Cl)nnc1Oc1cccc(Cl)c1F [Compound No. 438, 6-Chloro-3-(3-chloro-2-fluorophenoxy)-4-pyridazinol] | 187 to 195 °C
